The results in this text go back to PubChem BioAssay (NCI).

Holding throughout (test): NCI anticancer screen, dose series, 48 h
The test system of assay [1] is RPMI-8226 leukemia.
The subject of assay [2] is SK-MEL-2 melanoma.
The subject of assay [3] is HCT-116 colon.
For assay [4], the system named is CCRF-CEM leukemia.
The subject of assay [5] is SNB-75 CNS.
In assay [6] the test system is NCI-H23 lung.
In assay [7] the test system is HOP-62 NSCLC.
Assay [8] concerns SNB-19 CNS.
Assay [9] relates to OVCAR-8 ovarian.
Assay [10] concerns HCC-2998 colon.

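Tested at 5 concentrations; 48 h exposure; 96-well plates; endpoints linearly interpolated, else capped at highest concentration. GI50 = concentration required for 50% inhibition of growth. TGI marks complete inhibition of growth.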 A value given as a limit tells only on which side of the number the result lay.

For `COC(=O)C1(F)C(=O)NC(=O)NC1OC` (stereo not drawn), the TGI in assay [1] was above 100 µM; in assay [2], above 100 µM; in assay [3], 94.7 µM; in [4], above 100 µM; in assay [5], above 100 µM; in assay [6], above 100 µM. The TGI in assay [7], in [8] and in assay [9] was above 100 µM throughout.

In the case of `COc1ccc(/C=C/C(=O)C(C)(C)Br)cc1`, the TGI in assay [1] is 14.6 µM; in [2], 27.5 µM; in assay [3] it was 9.83 µM; in assay [4], 5.22 µM; in assay [6] it was 6.04 µM; in assay [7] it was 25.3 µM. Moreover, the TGI in assay [8] worked out at 88.7 µM; in assay [9] it was 11.5 µM.

Regarding `NC(=O)c1c[se]c(C2OC(COP(=O)(O)CP(=O)(O)OCC3OC(n4cnc5c(N)ncnc54)C(O)C3O)C(O)C2O)n1` (stereo not drawn), the TGI in [2], in assay [3], in assay [4], in assay [5], in assay [6] and in [7] was above 100 µM each time. Also, the TGI in assay [8] and in assay [9] was above 100 µM throughout.

As for `CC1(C)OC(COCCOCCCCCO)C(COCCOCCCCCO)O1` (stereo not drawn), the TGI in assay [1], in [2], in assay [10], in assay [3], in assay [5] and in assay [6] was above 100 µM each time. Also, the TGI in [7], in assay [8] and in assay [9] was above 100 µM throughout.

With `O=C(O)C1C2C=CC(O2)C1C(=O)Nc1ncccn1` (stereo not drawn), the TGI in [1], in assay [2], in assay [3], in [4], in [5] and in assay [6] was above 100 µM each time. Moreover, the TGI in [7], in [8] and in assay [9] was above 100 µM each time.

`Cc1ccccc1NC(=O)C(=O)CC(=O)c1ccc([N+](=O)[O-])cc1`: the TGI in assay [1], in [2], in [10], in assay [3], in assay [5] and in [6] was above 100 µM in each case. For the same molecule, the TGI in [7], in assay [8] and in [9] was above 100 µM throughout.

Regarding `CC12OC(C(=O)C13CCC3)C1C(=O)c3ccccc3C(=O)C12` (stereo not drawn), the GI50 in assay [1] is 26.5 µM; in assay [2] it was above 100 µM; in assay [3], above 100 µM; in assay [4], 36.9 µM; in [5], above 100 µM; in assay [6], 38 µM. For the same molecule, the GI50 in [7] was above 100 µM; in assay [8], above 100 µM; in assay [9] it was 61.8 µM. Also, the TGI in assay [1], in assay [2], in assay [3], in assay [4], in assay [5] and in [6] was above 100 µM in each case. The TGI in [7], in [8] and in [9] was above 100 µM each time.

As to `c1cnc2[nH]cc(-c3csc(-c4cn(CCCN5CCCCC5)c5ccccc45)n3)c2c1`, the GI50 in assay [1] was 2.08 µM; in assay [2] it was 2.04 µM; in [5] it was 1.21 µM; in assay [7], 1.47 µM. The TGI in [1] was determined as 4.63 µM; in assay [2] it was 4.24 µM; in assay [5], 2.84 µM; in assay [7] it was 3.02 µM.

Consider `COc1cc2nnn3c4ncccc4c(N=O)c3c2cc1OC`, for which the GI50 was 0.173 µM in assay [1]; 16.5 µM in [2]; 2.28 µM in assay [10]; 0.118 µM in assay [3]; 2.59 µM in assay [5]; 6.4 µM in [6]. The GI50 is 6.71 µM in [7], 9.75 µM in assay [8] and 1.77 µM in [9]. In addition, the TGI in assay [1] was above 100 µM; in assay [2], above 68.1 µM; in assay [10] it was 10.8 µM; in assay [3], above 100 µM; in assay [5], 40.1 µM; in assay [6], 27.9 µM. Further, the TGI in assay [7] is 16.8 µM; in assay [8], above 74 µM; in assay [9], above 100 µM.

In the case of `NC(N)=N/N=C/c1c(-c2ccc(Cl)c([N+](=O)[O-])c2)nc2n1CCS2`, the GI50 is 3.66 µM in assay [1]; 1.62 µM in assay [3]; 2.6 µM in [4]; 16 µM in assay [5]; 14.3 µM in assay [6]; 2.83 µM in assay [7]. For the same molecule, the GI50 in assay [8] is 4.67 µM; in assay [9], 8.89 µM. The TGI was found to be 10.9 µM in assay [1]; 2.97 µM in [3]; 9.93 µM in [4]; 37.9 µM in [5]; 27.3 µM in assay [6]; 9.44 µM in [7]. Moreover, the TGI in [8] and in assay [9] was above 100 µM in each case.

As for `Nc1ccn([C@@H]2C(F)=C(CO)[C@@H](O)[C@H]2O)c(=O)n1`, the GI50 in assay [2] is above 100 µM; in [10] it was 0.962 µM; in assay [3], 0.395 µM; in [5], 9.94 µM; in [6], 3.84 µM; in assay [8], 2.81 µM. Besides, the GI50 in assay [9] was 0.551 µM. In addition, the TGI in assay [2], in assay [10], in assay [3], in [5], in [6] and in assay [8] was above 100 µM in each case. The TGI in assay [9] is above 100 µM.

On to `CCN(CC)CCOc1ccc(/C=C2\CC3C4CC=C5C[C@@H](OC(C)=O)CC[C@]5(C)C4CC[C@]3(C)C2=O)cc1OC` (stereo partly drawn), for which the GI50 is 1.71 µM in assay [1]; 5.1 µM in assay [2]; 3.74 µM in assay [10]; 1.92 µM in assay [3]; 20.5 µM in [5]; 12.4 µM in [6]. The GI50 in assay [7] was 4.34 µM; in assay [8], 47.1 µM; in [9], 20 µM. Further, the TGI in [1] is 4.63 µM; in [2], above 100 µM; in assay [10] it was 14.1 µM; in assay [3] it was 5.61 µM; in assay [5], 58.1 µM; in [6], 49.5 µM. Further, the TGI in [7] is 16.8 µM; in [8] it was above 100 µM; in assay [9] it was 49 µM.

On to `COc1cc(O)c(C(C)=O)c(O)c1`, for which the TGI in assay [2], in assay [10], in [3], in assay [5], in [6] and in [7] was above 100 µM throughout. In assay [9], this molecule came in with a TGI above 100 µM.

Turning to `Fc1c[c-]c(-c2ccccn2)c(F)c1.[CH3-].[Pt+2].c1ccc(P(C[PH+](c2ccccc2)c2ccccc2)c2ccccc2)cc1`, the GI50 in assay [1] was 0.262 µM; in assay [2] it was 0.695 µM; in [10] it was 0.484 µM; in assay [3], 0.494 µM; in assay [5], 0.967 µM; in assay [6], 0.563 µM. Further, the GI50 was 0.932 µM in assay [7], 0.403 µM in assay [8] and 0.63 µM in assay [9]. Besides, the TGI was 1.87 µM in assay [1]; 1.89 µM in assay [2]; 1.29 µM in assay [10]; 1.29 µM in assay [3]; 4.14 µM in assay [5]; 1.99 µM in [6]. Moreover, the results for the TGI in [7], in [8] and in assay [9] were 3.71 µM, 1.32 µM and 5.76 µM, respectively.

For the molecule `C[C@@]12CCCC(=O)N1[C@@H](CO)C(c1ccccc1)O2` (stereo partly drawn), the TGI in assay [1], in assay [2], in assay [3], in assay [5], in [6] and in [7] was above 100 µM throughout. Besides, the TGI in assay [8] and in assay [9] was above 100 µM throughout.

Take `CCOC(=O)C[C@@]12CCCNC1(C)CCc1ccccc12` (stereo partly drawn): the TGI in [1], in assay [2], in assay [3], in [4], in [7] and in assay [8] was above 100 µM in each case. The TGI in [9] is above 100 µM.

As to `Cc1cc(=O)oc2cc(OCCn3c(C)nn(-c4ccc(Cl)cc4)c3=O)ccc12`, the GI50 in [1] was 11 µM; in [2], 18.2 µM; in assay [10] it was 3.59 µM; in [3] it was 3.57 µM; in assay [5] it was 2.22 µM; in assay [6] it was 2.83 µM. In addition, the GI50 is 3.05 µM in assay [7], 5.37 µM in assay [8] and 5.17 µM in [9]. In addition, the TGI is above 100 µM in assay [1]; above 100 µM in [2]; above 100 µM in assay [10]; above 100 µM in assay [3]; 15.1 µM in assay [5]; above 100 µM in assay [6]. Besides, the TGI in assay [7] was 32.9 µM; in assay [8], above 100 µM; in assay [9] it was above 100 µM.

On to `CC(=O)OCCC(O[Si](c1ccccc1)(c1ccccc1)C(C)(C)C)C(C)(C)O` (stereo not drawn), for which the TGI in assay [1] is 63 µM; in [2] it was above 100 µM; in [3] it was 31.2 µM; in [4] it was 67.6 µM; in assay [5], above 100 µM; in assay [6] it was 68.7 µM. Besides, the TGI in assay [8] and in assay [9] was above 100 µM each time.

On to `O=C(Nc1cc(S(=O)(=O)c2ccc(Cl)cc2)ccc1Cl)c1cc(I)cc(I)c1O`, for which the GI50 in [1] was 0.0515 µM; in assay [2], 16.6 µM; in assay [10] it was 13.2 µM; in [3] it was 14.3 µM; in [5], 19.7 µM; in assay [6], 16.5 µM. The GI50 was 18.6 µM in assay [7], 14.9 µM in assay [8] and 18.6 µM in assay [9]. For the same molecule, the TGI was 0.833 µM in [1]; 39.4 µM in [2]; 27.2 µM in assay [10]; 27.7 µM in [3]; 43.1 µM in assay [5]; 33.9 µM in assay [6]. The values for the TGI in [7], in assay [8] and in [9] were 34.1 µM, 29.3 µM and 41.7 µM, respectively.

Take `NS(=O)(=O)c1ccc(NC(=O)c2cccn3c(=O)c4ccccc4nc23)cc1`: the TGI in assay [1], in assay [3], in assay [4], in assay [5], in assay [6] and in [7] was above 100 µM in each case. For the same molecule, the TGI in assay [8] and in assay [9] was above 100 µM throughout.

Consider `CCC(=O)c1cc([N+](=O)[O-])c(Br)s1`, for which the GI50 is 20.2 µM in [1]; 15.2 µM in [10]; 1.68 µM in assay [3]; 10.4 µM in [5]; 17.3 µM in assay [6]; 2.25 µM in assay [7]. The GI50 in [8] was 17.4 µM; in [9], 2.23 µM. Also, the TGI in [1] is 89 µM; in assay [10] it was 31 µM; in assay [3] it was 3.14 µM; in assay [5], 22.2 µM; in assay [6], 49.2 µM; in assay [7], 4.54 µM. In addition, the TGI in assay [8] was 35.3 µM; in assay [9], 5.04 µM.

With `CC(=O)[CH-]C(=O)c1ccccc1.CC(=O)[CH-]C(=O)c1ccccc1.[CH2-]CCC.[CH2-]CCC.[Sn+4]`, the GI50 is 0.22 µM in [1]; 0.555 µM in assay [2]; 1.38 µM in assay [3]; 0.261 µM in assay [4]; 0.352 µM in assay [5]; 0.476 µM in assay [6]. The values for the GI50 in [8] and in assay [9] were 1.3 µM and 1.36 µM, respectively. Moreover, the TGI in [1] was found to be 0.567 µM; in assay [2], 1.77 µM; in assay [3], 2.78 µM; in assay [4] it was 0.745 µM; in assay [5], 1.18 µM; in [6], 1.77 µM. In addition, the TGI turned out to be 2.73 µM in assay [8] and 3.1 µM in assay [9].
